PubChem BioAssay (NCI)
Values joined by “and” are separate entries in the source; they are usually repeats but may differ in a detail not shown here. Equal entries are not always repeated.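 1) Cells in 96-well plates. 2) Compound, 48 h, 5 concentrations. 3) Linear interpolation between surrounding doses. 4) Unreached endpoint = highest concentration. GI50 marks 50% less growth. At the TGI there is no net growth.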

What was measured:
Assay in all cases: inhibition of tumour cell growth, NCI panel, 48 h
U251 CNS = test system: U251 CNS
786-0 renal = test system: 786-0 renal
SNB-75 CNS = test system: SNB-75 CNS
HOP-92 NSCLC = test system: HOP-92 NSCLC
SF-295 CNS = test system: SF-295 CNS
HCT-15 colon = test system: HCT-15 colon
M14 melanoma = test system: M14 melanoma
TK-10 renal = test system: TK-10 renal
DU-145 prostate = test system: DU-145 prostate
T-47D breast = test system: T-47D breast

SMILES	TGI (U251 CNS)	TGI (786-0 renal)	TGI (SNB-75 CNS)	TGI (HOP-92 NSCLC)	TGI (SF-295 CNS)	TGI (HCT-15 colon)	TGI (M14 melanoma)	TGI (TK-10 renal)	TGI (DU-145 prostate)	TGI (T-47D breast)	GI50 (U251 CNS)	GI50 (786-0 renal)	GI50 (SNB-75 CNS)	GI50 (DU-145 prostate)	GI50 (SF-295 CNS)	GI50 (HCT-15 colon)	GI50 (M14 melanoma)	GI50 (T-47D breast)	GI50 (HOP-92 NSCLC)	GI50 (TK-10 renal)
CC(O)c1ccc(C(O)/C(=N\NC(=O)c2ccncc2)c2nc3ccc([N+](=O)[O-])cc3[nH]c2=O)cc1 (stereo not given)	> 100 µM	> 100 µM	> 100 µM	> 100 µM	> 100 µM	> 100 µM	> 100 µM	–	–	–	–	–	–	–	–	–	–	–	–	–
O=C(CC1(O)C(=O)Nc2ccc([N+](=O)[O-])cc21)c1ccc(Br)cc1 (stereo not given)	51 µM	> 100 µM	76.7 µM	–	> 100 µM	> 100 µM	> 100 µM	69.5 µM	–	–	–	–	–	–	–	–	–	–	–	–
O=C(NCCCl)NCc1ccccc1	> 100 µM	> 100 µM	> 100 µM	> 100 µM	> 100 µM	> 100 µM	–	–	> 100 µM	> 100 µM	–	–	–	–	–	–	–	–	–	–
c1ccc(N2N=NC3C4CC(C5c6ccccc6C45)C32)cc1 (stereo not given)	> 100 µM	> 100 µM	> 100 µM	54.6 µM	> 100 µM	> 100 µM	> 100 µM	> 100 µM	–	–	–	–	–	–	–	–	–	–	–	–
CN(CCCCN)c1ccc2c(=O)[nH][nH]c(=O)c2c1	> 100 µM	> 100 µM	> 100 µM	> 100 µM	> 100 µM	> 100 µM	> 100 µM	> 100 µM	–	–	–	–	–	–	–	–	–	–	–	–
Nc1nc(-c2ccc3ccccc3c2)cc(-c2cc(-c3ccc4ccccc4c3)nc(N)n2)n1	> 100 µM	> 100 µM	–	> 100 µM	> 100 µM	> 100 µM	> 100 µM	> 100 µM	> 100 µM	> 100 µM	–	–	–	–	–	–	–	–	–	–
O=C(O)c1ccccc1C1c2ccc(Cl)cc2Oc2cc(Cl)ccc21	> 100 µM	> 100 µM	> 100 µM	> 100 µM	> 100 µM	> 100 µM	> 100 µM	> 100 µM	–	–	–	–	–	–	–	–	–	–	–	–
CCOC(=O)Cn1c(=O)[nH]c(=O)c2[nH]cnc21	> 100 µM	> 100 µM	> 100 µM	–	–	> 100 µM	> 100 µM	> 100 µM	–	–	–	–	–	–	–	–	–	–	–	–
COc1cc(OC)c(/C=C/C(=O)c2c(O)cc(OC)c(C3CCN(C)CC3)c2OC)c(OC)c1	2.52 µM	2.72 µM	2.86 µM	–	2.98 µM	2.8 µM	3.05 µM	–	3.25 µM	3.25 µM	1.27 µM	1.42 µM	1.39 µM	1.75 µM	1.56 µM	1.31 µM	1.67 µM	1.76 µM	–	–
COC(=O)c1cc2c(nc1C)-c1ccccc1OS2(=O)=O	> 100 µM	> 100 µM	35.3 µM	83.2 µM	> 100 µM	> 100 µM	> 100 µM	> 100 µM	–	–	–	–	–	–	–	–	–	–	–	–
COC1C(C)OC(OC2CC(C)(O)Cc3cc4c(c(O)c32)C(=O)c2c(O)cc3c(c2C4=O)OC2OC3(C)C(O)C(N(C)C)C2O)C(OC)C1(C)OC (stereo not given)	–	2.46 µM	–	–	–	9.85 µM and 15.2 µM	–	0.781 µM	–	0.000313 µM	0.0459 µM and 0.016 µM	–	0.00361 µM and 0.0315 µM	–	0.0538 µM and 0.0356 µM	0.641 µM and 0.494 µM	0.141 µM	–	0.00296 µM and 0.0156 µM	0.109 µM
c1cnc2nc3n(c2c1)CSC3	> 100 µM	> 100 µM	> 100 µM	> 100 µM	> 100 µM	> 100 µM	> 100 µM	> 100 µM	–	–	–	–	–	–	–	–	–	–	–	–
CC(C)=Cc1cc(C(=O)NCCNC(=O)c2cc(C=C(C)C)nc(NC#N)n2)nc(NC#N)n1	> 100 µM	> 100 µM	> 100 µM	> 100 µM	> 100 µM	> 100 µM	> 100 µM	> 100 µM	–	–	–	–	–	–	–	–	–	–	–	–
Cc1ccc(S(=O)(=O)OC2CSSCC2OS(=O)(=O)c2ccc(C)cc2)cc1 (stereo not given)	27.2 µM	25.1 µM	28.1 µM	23.7 µM	30.5 µM	22.5 µM	25.1 µM	28.9 µM	–	–	–	–	–	–	–	–	–	–	–	–
C1=CC(=NN=P(c2ccccc2)(c2ccccc2)c2ccccc2)C=C1	–	> 100 µM	> 100 µM	> 100 µM	–	> 100 µM	> 100 µM	> 100 µM	–	–	–	–	–	–	–	–	–	–	–	–
O=[P+](O)c1cccnc1	> 100 µM	> 100 µM	> 100 µM	> 100 µM	> 100 µM	> 100 µM	> 100 µM	> 100 µM	–	–	–	–	–	–	–	–	–	–	–	–
O=[N+]([O-])c1cccc([I+]c2ccccc2)c1	20.3 µM	29.9 µM	20.8 µM	–	25.6 µM	30.1 µM	33.5 µM	–	24.3 µM	33.4 µM	6.39 µM	13 µM	6.56 µM	11.1 µM	10.9 µM	5.35 µM	11.1 µM	8.28 µM	–	–
COC(=O)Cc1nn2c(nc1=O)sc1ccc3ccccc3c12	74.1 µM	> 100 µM	76.3 µM	> 100 µM	–	> 100 µM	> 100 µM	–	–	–	–	–	–	–	–	–	–	–	–	–
ClCc1ccc(-c2ccc(Cn3cnc4c(Cl)ncnc43)cc2)cc1	3.95 µM	2.97 µM	–	25.2 µM	4.89 µM	4.47 µM	11.8 µM	3.58 µM	3.36 µM	–	1.81 µM	1.62 µM	–	1.49 µM	1.92 µM	1.9 µM	2.69 µM	–	2.02 µM	1.65 µM
C=CNC(=S)n1nc(-c2ccccc2NC(=O)C(F)(F)F)c(=O)n(C(=S)NC=C)c1=S	> 100 µM	> 1 µM	62.8 µM	36.5 µM	81.6 µM	> 100 µM	> 100 µM	> 100 µM	–	–	–	–	–	–	–	–	–	–	–	–
COC(=O)C1=Cc2cn(S(=O)(=O)c3ccc(C)cc3)c3cccc(c23)C(C=C(C)C)N1C(C)=O (stereo not given)	> 100 µM	> 100 µM	> 100 µM	> 100 µM	> 100 µM	–	> 100 µM	> 100 µM	–	–	–	–	–	–	–	–	–	–	–	–
CSCC(COC(C)=O)(CSC)c1ccncc1	> 100 µM	> 100 µM	> 100 µM	–	> 100 µM	> 100 µM	> 100 µM	> 100 µM	–	–	–	–	–	–	–	–	–	–	–	–
Cn1c2c(c3ccccc31)CCN(CCCN1CCN(c3ccccc3)CC1)C2=O	30.2 µM	39.1 µM	–	31.7 µM	37.8 µM	50 µM	37 µM	35.4 µM	–	–	–	–	–	–	–	–	–	–	–	–
CCOC(=O)CP(=S)(S)c1ccccc1 (stereo not given)	> 100 µM	> 100 µM	–	> 100 µM	–	–	–	> 100 µM	–	–	–	–	–	–	–	–	–	–	–	–
